How the values were obtained:
HT-29 cells = assay: TSZ-induced necroptotic cell death in HT-29 cells (MTT assay); format: cell-based
Protocol: Cell viability was determined using tetrazolium dye colorimetric tests (the MTT assay) read at 570 nm. PI staining was quantified using propidium iodide (Cat. No. 51-66211E, BD Biosciences). Lactate dehydrogenase (LDH) leakage was quantified using the […] according to the manufacturer’s instructions. The LDH absorbance was read at 490 nm, and the mean ± STDEV of duplicates is presented.
HT-29 cells were pretreated with four tested inhibitors for 2 h and then treated with TSZ (6 h for immunoblotting, 24 h for cell death assay). Cell lysates were analyzed by immunoblotting, and cell viability was analyzed by MTT assay or phase-contrast microscopy. The results are presented as the means ± SEM. *P < 0.05, **P < 0.01, ***P < 0.001. b Protection of necroptosis by HS-1371 treatment is similar with dabrafenib, which abolished downstream events. HT-29 cells were pretreated with various necroptosis inhibitors and HS-1371 before TSZ treatment. Cell lysates were analyzed by immunoblotting, and cell viability was analyzed by MTT assay (left panel). Cells were stained with phospho-MLKL antibody and analyzed by confocal fluorescence microscopy (middle panel), and cell death was further analyzed by FACS analysis after PI staining (right panel). c HS-1371 protects cells from TNF-induced necroptosis in a dose-dependent manner. HT-29 cells were pretreated with indicated concentrations of HS-1371 and then treated with TSZ (6 h for immunoblotting, 24 h for cell death assay). Cell lysates were analyzed by immunoblotting, and cell viability was analyzed by MTT assay or phase-contrast microscopy. The results are presented as means ± SEM. *P < 0.05, **P < 0.01, ***P < 0.001 TEXT PRINTED IN THE PICTURE: (b) TSZ: 20.7 | (b) TSZ + Nec-1: 5.8 | (b) TSZ + DAB: 5.5 | (b) TSZ + 1371: 6.8 DOUBTS OF THE COPYIST ABOUT THIS PICTURE: Panel b, flow cytometry plots: the red gate numbers are printed without a measure or unit, so none is given / Panel b: the 'Untreated' control plot prints 7.7; left out because it is not a substance

293T cells = assay: RIP3 overexpression-induced cell death in 293T cells (PI staining); format: cell-based, human; conditions: 293T transfected with Flag-RIP3, 20 h
Protocol: Fig. 6 Possibility of HS-1371 as a drug for necroptosis-related diseases. a, b HT-29 cells were pre- or post-treated with HS-1371 for indicated time points, and RIP3 phosphorylation (a) and cell death (b) were measured by western blotting or MTT assay. Data are presented as means ± SEM. *P < 0.05, **P < 0.01, ***P < 0.001. c HT-29 cells were treated with TSZ and then post-treated with HS-1371 for indicated time points, and then cell lysates were analyzed by immunoblotting (upper panel). Cell viability was analyzed by MTT assay. Data are presented as means ± SEM. *P < 0.05, **P < 0.01, ***P < 0.001. d Cells were treated with the same conditions as (c), and cell lysates were immunoprecipitated with anti-RIP3 antibody. […] 293T cells were transfected with Flag vector or Flag-RIP3, and 20 h after transfection, cells were stained with PI. PI-positive cells were analyzed by phase-contrast fluorescence microscopy

RIP3 = RIP3 (Homo sapiens, UniProt Q9Y572); assay: TNF (TSZ)-induced RIP3 and MLKL phosphorylation in HT-29 cells (immunoblot); format: cell-based; set-up: RIP3-expressing HT-29 cells; endogenous in cells; host or cells: HT-29
Sequence of RIP3 (Q9Y572 whole entry): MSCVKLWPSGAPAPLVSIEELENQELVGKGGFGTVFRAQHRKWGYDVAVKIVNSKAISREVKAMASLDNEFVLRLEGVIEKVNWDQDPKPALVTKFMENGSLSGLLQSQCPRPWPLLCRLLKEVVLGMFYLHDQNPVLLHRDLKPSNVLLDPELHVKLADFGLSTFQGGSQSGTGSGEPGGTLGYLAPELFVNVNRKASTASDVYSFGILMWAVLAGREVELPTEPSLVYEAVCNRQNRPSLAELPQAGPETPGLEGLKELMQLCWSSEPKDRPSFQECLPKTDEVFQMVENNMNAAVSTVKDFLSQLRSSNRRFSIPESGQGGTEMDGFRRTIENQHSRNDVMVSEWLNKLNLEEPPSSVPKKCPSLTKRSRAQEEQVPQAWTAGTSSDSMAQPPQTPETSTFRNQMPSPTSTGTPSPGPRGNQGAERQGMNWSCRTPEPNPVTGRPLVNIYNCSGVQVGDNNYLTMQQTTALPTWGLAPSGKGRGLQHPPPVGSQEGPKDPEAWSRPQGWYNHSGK
Protocol: Cells were rinsed in cold phosphate-buffered saline (PBS) and lysed in M2 buffer containing 20 mM Tris at pH 7, 0.5% NP-40, 250 mM NaCl, 3 mM EDTA, 3 mM EGTA, 2 mM DTT, 0.5 mM PMSF, 20 mM β-glycerol phosphate, 1 mM sodium vanadate, and 1 μg/mL leupeptin. The cell extracts were subjected to western blot analysis. For immunoprecipitation, lysates were mixed and precipitated with antibody and protein A-agarose beads overnight or for 4 h at 4 °C. Bound proteins were removed by boiling in SDS and resolved by SDS-PAGE, and immunoblotting was visualized by enhanced chemiluminescence (ECL, Amersham).
Fig. 2 Novel inhibitors can block RIP3 S227 phosphorylation. a Western blotting showing various kinase inhibitor effects on RIP3 S227 auto-phosphorylation. HT-29 cells were treated with four tested kinase inhibitors (1308, 1336, 1338, and 1371, 10 μM) for 9 h. As a control, KK5101 (Trk alpha inhibitor) and HS829 (IKK beta inhibitor) were also treated at a concentration of 10 μM for 9 h. Prototypical necroptosis stimuli (TNF + zVAD + either cycloheximide or SMAC mimetic; hereafter referred to as TCZ or TSZ) were applied for 6 h. […] HT-29 cells were treated with 4 tested kinase inhibitors for 24 h, and cell viability was analyzed by MTT assay or phase-contrast microscopy. […] HT-29 cells were pretreated with necrostatin-1 (Nec-1, 40 μM), dabrafenib (DAB, 10 μM) or necrosulfonamide (NSA, 1 μM) for 2 h and then treated with TSZ for 6 h. […] HT-29 cells were pretreated with four tested kinase inhibitors for 2 h and then treated with TSZ for 6 h. Cell lysates were analyzed by immunoblotting. f HT-29 cells were pretreated with Nec-1 (40 μM), DAB (5 μM) or HS-1371 (5 μM) for 2 h and then treated with TSZ for 4 h. Cell lysates were immunoprecipitated with anti-RIP3 antibody. Immunoprecipitates and total lysates were analyzed by Western blotting
TNFα Smac mimetic and the caspase inhibitor zVAD (hereafter referred to as TSZ) is a classical combination that is used to induce RIP3-mediated necroptotic cell death[10],[32]. We first verified that three established pharmacological inhibitors of necroptosis, necrostatin-1 (Nec-1), necrosulfonamide (NSA), and dabrafenib (DAB) could block TNF-induced necroptosis (Fig. 2d). Of these inhibitors, Nec-1 inhibits RIP1 kinase activity[33],[34], DAB inhibits RIP3 kinase activity, and NSA inhibits MLKL functions downstream of RIP3 phosphorylation. […] Next, we tested whether these four inhibitors would inhibit TNF-induced necroptosis signaling by blocking RIP3 kinase activity. […] The effect of HS-1371 on RIP3 kinase activity was compared with another RIP3 inhibitor, GSK’872[16].

[1] = HT-29, 5 μM, pretreated 1 h or applied 1 or 2 h after induction
[2] = HT-29, post-treatment until approximately 5 h after TSZ

SMILES: Cc1ccc(Oc2ccnc3cc(-c4cnn(C5CCNCC5)c4)ccc23)cc1 [HS-1371, 7-(1-(Piperidin-4-yl)-1H-pyrazol-4-yl)-4-(p-tolyloxy)quinoline]
- TNF-induced cell death, pre-treatment and post-treatment (HT-29 cells; [1]): completely inhibited
- viability in response to TSZ-mediated necroptosis, dose-dependent (HT-29 cells; HT-29, indicated concentrations, TSZ 24 h): effectively restored
- cellular cytotoxicity, post-treatment after TSZ (HT-29 cells; [2]): significantly reduced
- rescue from TSZ-induced cell death (HT-29 cells; HT-29, pretreated 2 h, TSZ 24 h): rescued
- cell death by RIP3 ectopic expression (PI-positive staining) (293T cells): completely blocked
- RIP3 phosphorylation, pre-treatment and post-treatment (RIP3; [1]): completely inhibited
- MLKL phosphorylation, post-treatment after TSZ (RIP3; [2]): partially blocked
- RIP3 phosphorylation, pre-treatment and post-treatment, low concentrations (RIP3; HT-29, pretreated 1 h or applied 1 or 2 h after induction, low concentrations): partial inhibitory effect
- effect on TNF-induced necroptosis signaling (phosphorylation of RIP3 and MLKL) (RIP3; HT-29, pretreated 2 h, TSZ 6 h): complete inhibitory effect
